We go through 1 compound from patent US6288110A, “Pharmaceutical compositions comprising disulfiram” (Yeda Research and Development Co Ltd., priority 1998, dated 2001).

In data set [1] the test system is neovascularization induced by bFGF. The experiment in a line: Subcutaneous angiogenesis in nude mice (bFGF agarose bead), disulfiram per os. In kind it is in vivo, CD1 nude male mice. The procedure: FIGS. 1A-1C show inhibition of neovascularization in nude mice by disulfiram (D). […] Bar is one mm.
Spherical agarose beads of approximately 1 mm in diameter were formed from 4% low gelling temperature agarose (Sigma) in PBS containing b-FGF or HB-EGF as angiogenic agent. The candidate angiogenic agent (10 μg/bead) was warmed in sterile microtest tubes to 40° C. in a dry-bath for a few seconds. 10 μl of agarose solution (6% in saline, 45° C.) were then added to 5 μl of the angiogenic compound and beads were formed above ice using a 20 μl pipette tip. Beads were implanted subcutaneously 1 cm away from the incision-site as reported previously for multicellular spheroids (Abramovitch, 1995) in mice anesthetized with a single dose of 75 mg/kg ketamine+3 mg/kg xylazine (i.p.). Experiments were carried out for 4 days in CD1 nude male mice. Each day one ml of aqueous solutions with or without 0.1-0.25 mM (25-60 μg) disulfiram was introduced per os to the mice using a feeding needle. Treatment was for three days starting from the day of bead implantation until one day before termination. Experiments were done in quadruplicates and repeated three times.
Agarose beads containing the angiogenic factor bFGF (10 μg/bead) were implanted subcutaneously into CD1 nude mice as described in section (d) of "Materials and Methods" above. […]

The test system of a further data set is all cell types examined. Kind of data set: DNA synthesis, all cell types examined, higher concentrations. The settings on record: >10 μM, all cell types examined (not shown). The format is cell-based. The procedure:
C6 rat glioma cells were plated in 96-well plates (Nunc, Denmark) (5000 cells per well) in DMEM with 5% FCS. After 6 hours the cells were rinsed and incubated for 48 hours in serum free medium. 5% FCS or growth factors were then added to the cells for 24 hours (triplicates). ^3 H-methyl-thymidine (5μCi/ml) (Rotem Ind. Ltd., Israel) was added to the cells for the last 14 hours. The cells were rinsed with 100 μl methanol for 10 minutes, followed by 200 μl 5% trichloroacetic acid, and then rinsed and lysed with 150 μl 0.3M NaOH. Radioactive thymidine incorporated into the DNA was determined for 1 min with 3 ml scintillation liquid (ULTIMA GOLD Packard) in a β-counter. DNA synthesis assays were performed in triplicates.
Bovine capillary endothelial cells (BCE) and bovine aortic BSMC were plated in 24-well plates (6000 cells per well) in 500 μl DMEM medium supplemented with 10% Colorado calf serum (CCS) (GIBCO, USA) and GPS. After 24 hours, medium was changed to starvation medium (2% CCS, 0.5% BSA, GPS) for 24 hours. ^3 H-methyl-thymidine (5 μCi/ml) was added for the last 6 hours. DNA synthesis assays were performed as described above, in triplicates. […]
Disulfiram was prepared in 0.1 mM stock solutions in DMSO. […] Inhibition was calculated as percentage of DNA synthesis of control.

For another data set, the system named is C6 glioma cells. Kind of data set: Cell rounding, C6 glioma cells. The format is cell-based, rat. The settings on record: 2 μM.
For the next data set, the system named is aldehyde dehydrogenases. The settings on record: cited from earlier work.
The test system of a further data set is oxidases. Particulars: cited from earlier work.
In the next data set the test system is aldolases. Particulars: cited from earlier work.
Another data set has as its system superoxide dismutase. Particulars: in vivo; cited from earlier work.
Data set [2] relates to metabolism of the carcinogen azomethane. Particulars: cited from earlier work.
In the next data set the test system is mammary tumors. Particulars: N-2-fluorenylacetamide or N-hydroxy-N-2-fluorenylacetamide, rats; cited from earlier work.
In data set [3] the test system is Sarcoma 180, EL-4 leukemia or L1210 murine leukemia. The settings on record: cited from earlier work.
Another data set relates to cisplatin nephrotoxicity. Particulars: humans; cited from earlier work.
The conditions of data set [4]: in vivo; cited from earlier work.

Regarding `CCN(CC)C(=S)SSC(=S)N(CC)CC` [disulfiram, Bis(diethylthiocarbamoyl) disulfide], in data set [1] (60 μg/mouse systemically, 4 days after implantation), the “inhibition of neovascularization induced by bFGF inside and around the bead” value is listed as “inhibited almost completely”. In addition, the “angiogenesis around the beads containing bFGF” value in [1] (25-60 μg/mouse/day per os, 3 days (1 ml of 0.1-0.25 mM)) was “clearly inhibited”. Further, the “inhibition at higher concentrations” value in the data set on all cell types examined is recorded as “became less inhibitory”. Also, in the data set with C6 glioma cells, the cell rounding entry was “did not change their shape to the rounded form”. In addition, in the data set with aldehyde dehydrogenases, the “inhibition of aldehyde dehydrogenases” value is “inhibit”. Besides, in the data set on oxidases, the inhibition of oxidases entry is listed as “inhibit”. For the same compound, the inhibition of aldolases entry with aldolases is recorded as “inhibit”. Also, in the data set on superoxide dismutase, the “inhibition of superoxide dismutase” value is reported as “inhibited superoxide dismutase”. In data set [2], the “inhibition of azomethane metabolism” value is reported as “inhibited the metabolism”. Further, the “incidence of mammary tumors” value in the data set with mammary tumors was “reduce the incidence of mammary tumors”. Also, the “effect on anti-tumor activity of ifosfamide and cyclophosphamide” value in data set [3] is on record as “without compromising their anti-tumor activity”. Also, the “protection against cisplatin nephrotoxicity” value with cisplatin nephrotoxicity was “did not show any protection”. Further, the “conversion into main metabolite diethyldithiocarbamate (DDC)” value in [4] is “quickly converted”.
